Reference: patent publication US20190085024A1, “Alpha-Ketoamide Inhibitors Of Cysteine Proteases” (Phelix Therapeutics, priority 2017, published 2019)
*1 amine or outer side, *2 acyl side, *3 side chain or, on linkers, in order; H or OH if unused. Where a SMILES comes first, the peptide text is derived from it. [ ]: non-standard residue; d: D form. The star is where a group is joined. ξ: configuration not given here. ξβ3hPhe(2-oxo) = O=C(C(=O)[*:2])C(Cc1ccccc1)N[*:1]; 2Nal = N[CH](Cc1ccc2ccccc2c1)C(=O)O; X2 = C=CCOCC(N[*:1])C(=O)C(=O)[*:2]; Ser(allyl) = C=CCOC[CH](N)C(=O)O; Cbz = O=C(OCc1ccccc1)*; PhAc = O=C(Cc1ccccc1)*; Allyl = C=CC*

Assays:
MERS WT = test: microbe, parasite or virus in culture; format: cell-based; conditions: Middle East respiratory syndrome-related coronavirus, read-out: MERS WT (μM)
Cathepsin L = Cathepsin L (Homo sapiens, UniProt P07711); test: Cathepsin L enzyme assay; format: biochemical; conditions: Ki by Morrison equation; pH 5.5, substrate Z-Phe-Arg-Amc; read-out: Cat L
Description: Two wells contained DMSO only for controls.
Velocity was converted to μM/sec.

[1] = tested on: EBOV WT (Ebola Wild Type); test: microbe, parasite or virus in culture; format: cell-based; conditions: Zaire ebolavirus, read-out: EBOV WT (μM) (Ebola Wild Type)
Calpain = Calpain enzyme assay; format: biochemical; conditions: Ki by Morrison equation; pH 7.5, 5 mM CaCl2
Cathepsin B = Cathepsin B (Homo sapiens, UniProt P07858); test: Cathepsin B enzyme assay; conditions: Cat B (μM), Ki by Morrison equation; pH 6.0, substrate Z-Phe-Arg-Amc
Cat S = Cat S (Homo sapiens, UniProt P25774); test: Cat S inhibition; format: biochemical
Sequence of Cat S (P25774 115-331): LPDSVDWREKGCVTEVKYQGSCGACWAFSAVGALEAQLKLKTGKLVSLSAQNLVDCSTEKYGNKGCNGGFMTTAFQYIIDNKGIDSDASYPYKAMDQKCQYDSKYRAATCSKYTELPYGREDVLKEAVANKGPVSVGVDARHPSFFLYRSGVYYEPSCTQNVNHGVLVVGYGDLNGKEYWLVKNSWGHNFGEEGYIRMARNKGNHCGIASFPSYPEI

Sequence of Cathepsin L (P07711 114-333, species assumed): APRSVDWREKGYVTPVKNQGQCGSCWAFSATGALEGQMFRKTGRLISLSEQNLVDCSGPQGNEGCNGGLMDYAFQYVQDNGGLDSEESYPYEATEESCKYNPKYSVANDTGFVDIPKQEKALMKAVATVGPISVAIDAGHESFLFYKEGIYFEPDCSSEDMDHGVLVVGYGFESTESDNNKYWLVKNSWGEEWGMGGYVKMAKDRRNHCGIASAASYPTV

Row | Structure (SMILES) | IC50 (MERS WT) [µM] | Ki (Cathepsin L) [nM] | IC50 [1] [µM] | Ki (Calpain) [nM] | Ki (Cathepsin B) [µM] | Ki (Cat S) [nM]
1 | C=CCOCC(NC(=O)C(CC(C)C)NC(=O)C(Cc1ccc(OCC=C)cc1)NC(=O)Cc1ccccc1)C(=O)C(=O)NCC(=O)NC(Cc1ccc2ccccc2c1)C(N)=O (stereo not shown) [PHELIX202, N-(1-(allyloxy)-4-((2-((1-amino-3-(naphthalen-2-yl)-1-oxopropan-2-yl)amino)-2-oxoethyl)amino)-3,4-dioxobutan-2-yl)-2-(3-(4-(allyloxy)phenyl)-2-(2-phenylacetamido)propanamido)-4-methylpentanamide] (PhAc-Y(Allyl)L[X2]G[2Nal]-NH2; configuration not given here) | > 10 | 24 | > 10 | 25.3 | 0.692 | 
2 | C=CCOCC(NC(=O)Cc1ccccc1)C(=O)NC(CC(C)C)C(=O)NC(COCC=C)C(=O)C(=O)NCC(=O)NC(Cc1ccc2ccccc2c1)C(N)=O (stereo not shown) [PHELIX200, 2-(3-(allyloxy)-2-(2-phenylacetamido)propanamido)-N-(1-(allyloxy)-4-((2-((1-amino-3-(naphthalen-2-yl)-1-oxopropan-2-yl)amino)-2-oxoethyl)amino)-3,4-dioxobutan-2-yl)-4-methylpentanamide] (PhAc-[Ser(allyl)]L[X2]G[2Nal]-NH2; configuration not given here) | > 10 | 1.51 | 6.4 | 6.57 | 0.0881 | 
3 | CC(NC(=O)C(Cc1ccccc1)NC(=O)Cc1ccccc1)C(=O)C(=O)NC(Cc1ccc(-c2ccccc2)cc1)C(=O)NC(C)(C)C(N)=O (stereo not shown) [PHELIX241, N-(3-([1,1′-biphenyl]-4-yl)-1-((1-amino-2-methyl-1-oxopropan-2-yl)amino)-1-oxopropan-2-yl)-2-oxo-3-(3-phenyl-2-(2-phenylacetamido)propanamido)butanamide] |  | 1360 |  | > 10000 | > 10 | 2740
4 | C=CCOCC(NC(=O)C(=O)C(COCC=C)NC(=O)C(CC(C)C)NC(=O)OCc1ccccc1)C(=O)NC(Cc1ccc2ccccc2c1)C(N)=O (stereo not shown) [PHELIX228, benzyl (1-((1-(allyloxy)-4-((3-(allyloxy)-1-((1-amino-3-(naphthalen-2-yl)-1-oxopropan-2-yl)amino)-1-oxopropan-2-yl)amino)-3,4-dioxobutan-2-yl)amino)-4-methyl-1-oxopentan-2-yl)carbamate] |  | 0.08 | 3.02 | 25.3 | 0.276 | 
5 | CC(C)CC(=O)NC(Cc1ccccc1)C(=O)NC(C)C(=O)C(=O)NC(Cc1ccccc1)C(=O)NC(C)(C)C(N)=O (stereo not shown) [PHELIX235, N-(1-((1-amino-2-methyl-1-oxopropan-2-yl)amino)-1-oxo-3-phenylpropan-2-yl)-3-(2-(3-methylbutanamido)-3-phenylpropanamido)-2-oxobutanamide] |  | 236 |  | > 10000 | 0.644 | 28.9
6 | CC(NC(=O)[C@H](Cc1ccccn1)NC(=O)Cc1ccccc1)C(=O)C(=O)N[C@@H](Cc1ccccc1)C(=O)N[C@@H](Cc1ccccc1)C(N)=O (stereo partly shown) [PHELIX219, N-(1-((1-amino-1-oxo-3-phenylpropan-2-yl)amino)-1-oxo-3-phenylpropan-2-yl)-2-oxo-3-(2-(2-phenylacetamido)-3-(pyridin-2-yl)propanamido)butanamide] | > 10 | 2910 | > 10 | > 10000 | 7.52 | 
7 | CC(C)CC(NC(=O)Cc1ccccc1)C(=O)NC(C)C(=O)C(=O)NC(C)C(=O)NC(C)(C)C(N)=O (stereo not shown) [PHELIX183, N-(4-((1-((1-amino-2-methyl-1-oxopropan-2-yl)amino)-1-oxopropan-2-yl)amino)-3,4-dioxobutan-2-yl)-4-methyl-2-(2-phenylacetamido)pentanamide] | 407 | 195 | 29.1 | 153 | 7.74 | 
8 | CCCCC(=O)NC(Cc1ccccc1)C(=O)NC(C)C(=O)C(=O)NC(Cc1ccccc1)C(=O)NC(C)(C)C(N)=O (stereo not shown) [PHELIX236, N-(1-((4-((1-((1-amino-2-methyl-1-oxopropan-2-yl)amino)-1-oxo-3-phenylpropan-2-yl)amino)-3,4-dioxobutan-2-yl)amino)-1-oxo-3-phenylpropan-2-yl)pentanamide] |  | 1720 |  | > 10000 | > 10 | 260
9 | CC(C)CC(NC(=O)OCc1ccccc1)C(=O)NC(C)C(=O)C(=O)N1CCC(C(=O)NC(Cc2ccccc2)C(N)=O)CC1 (stereo not shown) [PHELIX186, benzyl (1-((4-(4-((1-amino-1-oxo-3-phenylpropan-2-yl)carbamoyl)piperidin-1-yl)-3,4-dioxobutan-2-yl)amino)-4-methyl-1-oxopentan-2-yl)carbamate] | > 10 | 4320 | 57.5 | 18100 | 60 | 
10 | CC(C)CC(NC(=O)OCc1ccccc1)C(=O)NC(C)C(=O)C(=O)NC(Cc1ccncc1)C(N)=O (stereo not shown) [PHELIX198, benzyl (1-((4-((1-amino-1-oxo-3-(pyridin-4-yl)propan-2-yl)amino)-3,4-dioxobutan-2-yl)amino)-4-methyl-1-oxopentan-2-yl)carbamate] | > 10 | 33.9 | 4.03 | 22 | 7.3 | 
11 | CC(C)CC(NC(=O)OCc1ccccc1)C(=O)NC(Cc1ccccc1)C(=O)C(=O)NC(C)C(=O)NC(CCC(=O)O)C(=O)NC(CCCNC(=N)N)C(N)=O (stereo not drawn) [PHELIX252, 15-((1-amino-5-guanidino-1-oxopentan-2-yl)carbamoyl)-8-benzyl-5-isobutyl-12-methyl-3,6,9,10,13-pentaoxo-1-phenyl-2-oxa-4,7,11,14-tetraazaoctadecan-18-oic acid] (Cbz-L[ξβ3hPhe(2-oxo)]AER-NH2; configuration not given here) | > 30 | 5.03 |  | 17 | > 10 | 
12 | CC(NC(=O)C(Cc1cccnc1)NC(=O)Cc1ccccc1)C(=O)C(=O)NC(Cc1ccccc1)C(=O)NC(C)(C)C(N)=O (stereo not shown) [PHELIX211, N-(1-((1-amino-2-methyl-1-oxopropan-2-yl)amino)-1-oxo-3-phenylpropan-2-yl)-2-oxo-3-(2-(2-phenylacetamido)-3-(pyridin-3-yl)propanamido)butanamide] | > 10 | 218 | 209 | > 10000 | 0.532 | 
13 | CCCCC(NC(=O)C(=O)C(C)NC(=O)C(Cc1ccccc1)NC(=O)Cc1ccccc1)C(=O)NC(C)(C)C(N)=O (stereo not shown) [PHELIX242, N-(1-amino-2-methyl-1-oxopropan-2-yl)-2-(2-oxo-3-(3-phenyl-2-(2-phenylacetamido)propanamido)butanamido)hexanamide] |  | 7520 |  | > 10000 | > 10 | 555
14 | CC(C)CC(NC(=O)OCc1ccccc1)C(=O)NC(C)C(=O)C(=O)NCCC(=O)NC(Cc1cccc(C#N)c1)C(N)=O (stereo not shown) [PHELIX185, benzyl (1-((4-((3-((1-amino-3-(3-cyanophenyl)-1-oxopropan-2-yl)amino)-3-oxopropyl)amino)-3,4-dioxobutan-2-yl)amino)-4-methyl-1-oxopentan-2-yl)carbamate] | > 10 | 102 | 13.3 | 68.4 | 2.1 | 
